# Source: patent US20200239412A1, “NEW DERIVATES OF DHAA WITH ELECTROSTATIC TUNING” (priority 2017, published 2020)
# “And” between values parts separate entries of the source, which are not always exact repeats. Identical values can stand only once. Counter-ions that a name gives are not always drawn.
# Columns and labels:
# Format in all cases: cell-based
# [1] = target: wt Shaker Kv channel (Shaker H4, Δ6-46) (Drosophila melanogaster, UniProt P08510, DEL6-46); experiment: Two-electrode voltage clamp, G(V) shift on wt Shaker Kv channel expressed in Xenopus laevis oocytes; conditions: mean
# Source text: (§1) Experiments were made with the Shaker H4 channel incapable of fast N-type inactivation due to a Δ6-46 deletion, referred to as the wt Shaker Kv channel. The 3R Shaker Kv channel with two additional positively charged arginines (M356R/A359R) in the extracellular end of S4, was also used.
# (§2) For the Shaker channels, Bluescript II KS(+) plasmid was linearized with HindIII and synthesis of cRNA were made with the T7 mMessage mMachine kit (Ambion, Austin, Tex.). Point mutations around S4, on the Shaker Kv channel, were introduced using QuickChange Site-Directed Mutagenesis Kit (Agilent Technologies, Santa Clara, Calif.) and sequencing were used for verification.
# (§3) 50 nl cRNA was injected into Xenopus laevis oocytes using a Nanoject injector (Drummond Scientific, Broomall, Pa.) and the oocytes were stored at 8° C. in a modified Barth's solution (MBS) before experiments (16° C., M-channel, 1-2 days). The MBS contained (in mM): 88 NaCl, 1 KCl, 2.4 NaHCO3, 15 HEPES, 0.33 Ca(NO3)2, 0.41 CaCl2), and 0.82 MgSO4, pH was adjusted to 7.5 by NaOH and the MBS was supplemented sodium pyruvate (2.5 mM). All animal experiments were approved by the Linkoping's local Animal Care and Use Committee.
# (§4) Currents were measured 1-6 days after cRNA injection using the two-electrode voltage clamp technique (GeneClamp 500B amplifier, Axon instruments). Signals were low pass filtered at 5 kHz and digitized by a Digidata 1440A converter (Molecular Devices, Sunnyvale, Calif.). The amplifiers leak compensation was used and Clampex 10.2 software (Molecular Devices) was used to obtain data and create voltage protocols. The extracellular control solution contained (in mM): 1 KCl, 88 NaCl, 0.8 MgCl2, 0.4 CaCl2) and 15 HEPES. pH were adjusted with NaOH. Electrode pipettes were made from borosilicate glass capillaries (Harvard apparatus, Kent, UK) using a two stage electrode puller (Narishige, Tokyo, Japan) and resistance was between 0.5-2.0 MO once filled with 3 M KCl solution. In the voltage protocol for the wt and 3R Shaker channel, holding potential was set to −80 mV and steady-state currents were measured at voltages between −80 and +50 mV (wt Shaker Kv channel) or +70 mV (3R Shaker Kv channel), using 5 mV increments, 100 ms. […] Physiol. 143, 173-182 (2014). For the M-channel, holding potential was set to −100 mV, test-voltages were measured between −120 and +50 mV (10 mV increments for 2 s) and tail currents were measured at −30 mV.
# (§5) Control solution was perfused to the recording chamber (0.5 ml/min) and the test solution was added manually with a syringe, in a volume large enough to replace the control solution manifold. Resin acids compounds were dissolved in DMSO (100 mM) and stored at −20° C. Just prior to experiment the compound was diluted to desired concentration in control solution. Recovery was measured after continuously perfusion of control solution, maximum 5 min. All recordings were made with the perfusion off. Experiments were carried out in room temperature (20-23° C.) and chemicals were purchased from Sigma Aldrich if not stated otherwise.
# (§6) Currents were leak subtracted and steady-state currents were measured 80-86 ms after onset of the test voltages (Clampfit 10.5, Molecular Devices). K conductance, GK, was calculated using,
# (§7) where IK is the steady-state current, V the absolute membrane voltage and VK the reversal potential for K ions (−80 mV), and the following Boltzmann curve was used to fit the data:
# (§8) GK(V)=A/(1+exp((V1/2−V)/s)^n (2)
# (§9) where A is the amplitude of the curve, V1/2 the midpoint when n=1, s the slope and n an exponent for better curve fitting, set to n=4. The voltage shift was calculated at 10% of maximal conductance in control curve.
# (§10) To quantify the concentration dependence or pH dependence of the GK(V) shifts the following equation was used:
# (§11) ΔVG(V)=ΔVMAX/(1+c1/2/c), (3)
# [2] = target: 3R Shaker Kv channel (M356R/A359R) (Drosophila melanogaster, UniProt P08510, A359R/DEL6-46/M356R); experiment: in vitro; conditions: for pKa at 100 μM: Drosophila, functional pH dependence, read-out: Functional pKa (pH where half of the maximum G(V) shift was achieved); for G(V) shift: mean
# Source text: as §1, §2, §3, §4, §5, §6, §7, §8, §9, §10, §11
# hKv7.2/Kv7.3 (M-channel) = target: T1, hKv7.2/Kv7.3 (M-channel) (Homo sapiens, UniProt O43525+O43526); experiment: Two-electrode voltage clamp, G(V) shift on human M-channel expressed in Xenopus laevis oocytes; conditions: for G(V) shift: mean
# T1 construct: expressed in transfected cells; host or cells: Xenopus laevis oocytes (cRNAs mixed 1:1)
# Method: Experiments were also made with the human hKv7.2/Kv7.3, referred to as the M-channel. cRNAs were mixed in a 1:1 molar ratio before injection into oocytes. hKv7.2 [GenBank Acc. No. NM_004518]. hKv7.3 [GenBank Acc. No NM_004519].
# as §3, §4, §5
# For the M channel tail currents were measured 18 ms after onset and then plotted against the test voltage. The Boltzmann curve (Eq. 2) was used to fit data and the slope was set to shared value between control and test compound. V1/2 was used to calculate the GK(V) shift.
# as §10, §11
# where ΔVG(v) is the voltage shift, ΔVMAX is the amplitude of the curve, c the concentration, c1/2 the concentration at which half maximum response occur. For compounds with no pH dependence the data was fitted with a horizontal line, with the slope set to 0.
# wt Shaker Kv channel (Shaker H4, Δ6-46), sequence (P08510 other isoform, or with tags, fused parts or gaps DEL6-46): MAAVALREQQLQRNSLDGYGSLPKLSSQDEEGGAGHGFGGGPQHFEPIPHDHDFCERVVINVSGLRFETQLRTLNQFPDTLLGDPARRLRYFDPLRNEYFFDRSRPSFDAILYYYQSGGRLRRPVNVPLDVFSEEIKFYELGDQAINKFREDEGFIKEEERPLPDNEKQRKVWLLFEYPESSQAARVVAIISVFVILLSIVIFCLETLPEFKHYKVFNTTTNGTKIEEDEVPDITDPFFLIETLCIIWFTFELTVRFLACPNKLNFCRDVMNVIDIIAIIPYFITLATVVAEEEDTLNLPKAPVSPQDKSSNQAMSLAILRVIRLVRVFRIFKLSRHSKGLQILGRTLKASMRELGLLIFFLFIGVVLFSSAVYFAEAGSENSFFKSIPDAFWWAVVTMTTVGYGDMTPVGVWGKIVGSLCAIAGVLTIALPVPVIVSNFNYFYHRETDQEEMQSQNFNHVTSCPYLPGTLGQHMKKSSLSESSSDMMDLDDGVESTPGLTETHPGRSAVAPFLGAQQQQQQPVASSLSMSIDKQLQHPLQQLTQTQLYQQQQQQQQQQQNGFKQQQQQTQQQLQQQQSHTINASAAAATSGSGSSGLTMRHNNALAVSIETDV
# 3R Shaker Kv channel (M356R/A359R), sequence (P08510 other isoform, or with tags, fused parts or gaps DEL6-46/M356R/A359R): as the sequence (P08510 other isoform, or with tags, fused parts or gaps DEL6-46) above, with M315R, A318R counted along it
structure (smiles),measurement,setting,value
"CC(C)c1ccc2c(c1)CCC1[C@](C)(CC(=O)O)CCC[C@]21C (stereo partly drawn) [Wu180, 2-((1S,4aS)-7-isopropyl-1,4a-dimethyl-1,2,3,4,4a,9,10,10a-octahydrophenanthren-1-yl)acetic acid]",G(V) shift,"[1]; pH 10, 100 μM",−2.40 mV
same,pKa at 100 μM,[2],7.3
same,G(V) shift,"[2]; pH 5.5, 100 μM",1.575 mV
same,G(V) shift,"[2]; pH 7.4, 100 μM",−11.04 mV
same,G(V) shift,"[2]; pH 10, 100 μM",−19.18 mV
"CC(C)c1ccc2c(c1)CC[C@H]1[C@](C)(C(=O)NCCCC(=O)O)CCC[C@]21C [Wu149, 4-((1R,4aS,10aR)-7-isopropyl-1,4a-dimethyl-1,2,3,4,4a,9,10,10a-octahydrophenanthrene-1-carboxamido)butanoic Acid]",G(V) shift,"[1]; pH 10, 100 μM",−0.57 mV
same,G(V) shift,"[2]; pH 7.4, 100 μM",−4.80 mV
same,"G(V) shift (example recording, normalized G(V) curves)","[2]; pH 7.4, 100 μM, single recording of FIG. 2C",−5.3 mV
same,G(V) shift,"[2]; pH 10, 100 μM",−5.17 mV
"CC(C)c1ccc2c(c1)CC[C@H]1[C@](C)(C(=O)NCCCC(=O)NCCCC(=O)O)CCC[C@]21C [Wu151, 4-(4-((1R,4aS,10aR)-7-isopropyl-1,4a-dimethyl-1,2,3,4,4a,9,10,10a-octahydrophenanthrene-1-carboxamido)butanamido)butanoic Acid]",G(V) shift,"[2]; pH 7.4, 100 μM",−2.53 mV
"CC(C)c1ccc2c(c1)CC[C@H]1[C@](C)(C(=O)NCCC(=O)NCCC(=O)O)CCC[C@]21C [Wu153, 3-(3-((1R,4aS,10aR)-7-isopropyl-1,4a-dimethyl-1,2,3,4,4a,9,10,10a-octahydrophenanthrene-1-carboxamido)propanamido)propanoic Acid]",G(V) shift,"[2]; pH 7.4, 100 μM",−2.54 mV
"CC(C)c1ccc2c(c1)CC[C@H]1[C@](C)(C(=O)NCCC(=O)O)CCC[C@]21C [Wu152, 3-((1R,4aS,10aR)-7-isopropyl-1,4a-dimethyl-1,2,3,4,4a,9,10,10a-octahydrophenanthrene-1-carboxamido)propanoic Acid]",G(V) shift,"[1]; pH 10, 100 μM",−1.17 mV
same,G(V) shift,"[2]; pH 7.4, 100 μM",−6.2 mV
same,G(V) shift,"[2]; pH 10, 100 μM",−5.20 mV
"CC(C)c1ccc2c(c1)CC[C@H]1[C@](C)(C(=O)NCCCS(=O)(=O)O)CCC[C@]21C [Wu150, 3-((1R,4aS,10aR)-7-isopropyl-1,4a-dimethyl-1,2,3,4,4a,9,10,10a-octahydrophenanthrene-1-carboxamido)propane-1-sulfonic acid]",G(V) shift,"[1]; pH 7.4, 100 μM",−4.18 mV
same,G(V) shift,"[2]; pH 7.4, 100 μM",−9.98 mV
"CC(C)c1ccc2c(c1)CC[C@H]1[C@](C)(C(=O)N[C@@H](CC(=O)O)C(=O)O)CCC[C@]21C [Wu148, ((1R,4aS,10aR)-7-isopropyl-1,4a-dimethyl-1,2,3,4,4a,9,10,10a-octahydrophenanthrene-1-carbonyl)-L-aspartic acid]",G(V) shift,"[1]; pH 7.4, 100 μM",−0.73 mV
same,G(V) shift,"[2]; pH 5.5, 100 μM",−13.30 mV
same,G(V) shift,"[2]; pH 6.5, 100 μM",−14.23 mV
same,G(V) shift,"[2]; pH 7.4, 100 μM",−14.47 mV
same,G(V) shift,"[2]; pH 9, 100 μM",−11.20 mV
same,G(V) shift,"[2]; pH 10, 100 μM",−9.53 mV
"CC(C)c1ccc2c(c1)CCC1[C@](C)(/C=C/C(=O)O)CCC[C@]21C (stereo partly drawn) [Wu176, (E)-3-((1S,4aS)-7-isopropyl-1,4a-dimethyl-1,2,3,4,4a,9,10,10a-octahydrophenanthren-1-yl)acrylic Acid]",pKa at 100 μM,[2],6.8
same,G(V) shift,"[2]; pH 5.5, 100 μM",2.80 mV
same,G(V) shift,"[2]; pH 7.4, 100 μM",−15.16 mV
same,G(V) shift,"[2]; pH 10, 100 μM",−17.10 mV
"CC(C)C1=CC2=CC[C@H]3[C@](C)(C(=O)NCCCC(=O)O)CCC[C@]3(C)C2CC1 (stereo partly drawn) [Wu157, 4-((1R,4aR,4bR,10aR)-7-isopropyl-1,4a-dimethyl-1,2,3,4,4a,4b,10,10a-decahydrophenanthrene-1-carboxamido)butanoic Acid]",G(V) shift,"[2]; pH 7.4, 100 μM",−7.10 mV
"C[C@@]1(COS(=O)(=O)O)CCC[C@]2(C)c3cc(Cl)c(Cl)c(Cl)c3CC[C@@H]12 [Wu181, ((1R,4aS,10aR)-6,7,8-trichloro-1,4a-dimethyl-2,3,4,9,10,10a-hexahydrophenanthrene-1-yl)methyl hydrogen sulfate]",ΔVMAX (maximum shift),hKv7.2/Kv7.3 (M-channel); concentration-response of G(V) shift,−42.1 mV and −42.1±5.7 mV
same,EC50,"hKv7.2/Kv7.3 (M-channel); concentration-response of G(V) shift, read-out: c1/2 (half-maximal concentration)",12.4 µM
same,G(V) shift,"hKv7.2/Kv7.3 (M-channel); pH 7.4, 10 μM",−18.9±2.4 mV and −18.90 mV
same,Increase of affinity compared to DHAA (factor),[2]; pH 7.4,16
same,Increase of affinity compared to Wu161 and Wu50 (factor),[2]; pH 7.4,6
same,Increase of amplitude/efficacy compared to DHAA (factor),[2]; pH 7.4,2.0
same,Increased G(V) shift at low concentrations compared to DHAA (factor),[2]; pH 7.4,32
same,G(V) shift,"[2]; pH 7.4, 3 μM",−21.3±2.9 mV
same,G(V) shift,"[2]; pH 7.4, 10 μM",−31.90 mV
same,ΔVMAX (maximum shift),"[2]; pH 7.4, concentration-response of G(V) shift",−53.6 mV and −53.6±4.0 mV
same,EC50,"[2]; pH 7.4, concentration-response of G(V) shift, read-out: c1/2 (half-maximal concentration)",6.1 µM
"CC(C)c1ccc2c(c1)CC[C@H]1[C@](C)(C(=O)NCC(=O)O)CCC[C@]21C [Wu117, ((1R,4aS,10aR)-7-isopropyl-1,4a-dimethyl-1,2,3,4,4a,9,10,10a-octahydrophenanthrene-1-carbonyl)glycine]",G(V) shift,"[1]; pH 10, 100 μM",−0.80 mV
same,G(V) shift,"[2]; pH 7.4, 100 μM",−7.27 mV
same,G(V) shift,"[2]; pH 10, 100 μM",−5.27 mV
"CC(C)C1=CC2=CC[C@@H]3[C@](C)(CCC[C@@]3(C)C(=O)O)[C@H]2CC1 [AA, abietic acid, reference compound]",G(V) shift,"[2]; pH 7.4, 100 μM",−16.05 mV
"CC(C)c1ccc2c(c1)CC[C@H]1[C@](C)(COP(=O)(O)O)CCC[C@]21C [Wu162, ((1R,4aS,10aR)-7-isopropyl-1,4a-dimethyl-1,2,3,4,4a,9,10,10a-octahydrophenanthren-1-yl)methyl Dihydrogen Phosphate]",G(V) shift,"[1]; pH 7.4, 100 μM",−1.18 mV
same,G(V) shift,"[2]; pH 6.5, 100 μM",−10.03 mV
same,G(V) shift,"[2]; pH 7.4, 100 μM",−11.80 mV
same,G(V) shift,"[2]; pH 9, 100 μM",−11.55 mV
same,G(V) shift,"[2]; pH 10, 100 μM",−8.93 mV
"CC(C)c1ccc2c(c1)CC[C@H]1[C@](C)(C(=O)NCCS(=O)(=O)O)CCC[C@]21C [Wu154, 2-((1R,4aS,10aR)-7-isopropyl-1,4a-dimethyl-1,2,3,4,4a,9,10,10a-octahydrophenanthrene-1-carboxamido)ethane-1-sulfonic Acid]",G(V) shift,"hKv7.2/Kv7.3 (M-channel); pH 7.4, 100 μM",−4.60 mV
same,G(V) shift,"[1]; pH 7.4, 100 μM",−2.48 mV
same,pKa at 100 μM,[2],< 7.4
same,G(V) shift,"[2]; pH 7.4, 100 μM",−9.85 mV
"CC(C)c1ccc2c(c1)CC[C@H]1[C@](C)(C(=O)NCP(=O)(O)O)CCC[C@]21C [Wu158, (((1R,4aS,10aR)-7-isopropyl-1,4a-dimethyl-1,2,3,4,4a,9,10,10a-octahydrophenanthrene-1-carboxamido)methyl)phosphonic Acid]",G(V) shift,"[2]; pH 7.4, 100 μM",−4.94 mV
